Literature values in US8778840B2, “Soluble liquid formulations of quinclorac ammonium salts” (BASF SE, priority 2007, dated 2014).

Details: pH 7 at 20° C.

O=C(O)c1c(Cl)ccc2cc(Cl)cnc12 [Quinclorac, 3,7-dichloro-8-quinolinecarboxylic acid]
solubility in water: 0.065 mg/kg
